Assay results reported in the supplement of paper PMC11061612.

Tests used:
[1] = system: FU-OV-1 (Ovarian Carcinoma); experiment: Bliss excess, mean over the matrix (fraction); higher = more synergy
Summary of the method: (§1)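 Cell lines in DMEM/F12 or RPMI with 10% FBS were plated in 1536-well plates, held 24 hours at 37°C, 5% CO2, then given two-drug dose matrices for 72 hours (DMSO typically 0.2%). Viability was read by CellTiter-Glo 2.0 luminescence and scaled as inhibition from 0 (vehicle wells) to 1 (blank wells). Combination Emax is the second-highest inhibition in the matrix; Bliss excess is observed combination effect minus expected EA + EB − EA·EB, EA and EB being single-agent effects.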

[2] = system: TC-YIK (Other Solid Carcinomas); experiment: as above
Summary of the method: as §1

[3] = system: D-283MED (Other Solid Carcinomas); experiment: combination Emax (second highest fraction inhibited in the dose matrix, 72 h); higher = more inhibition; extreme values may be limits of the assay
Summary of the method: as §1

[4] = system: EFM-192A (Breast Carcinoma); experiment: as above
Summary of the method: as §1

[5] = system: FU-OV-1 (Ovarian Carcinoma); experiment: as above
Summary of the method: as §1

[6] = system: GDM-1 (Acute Myeloid Leukemia); experiment: as above
Summary of the method: as §1

[7] = system: HCC-827 (Lung Adenocarcinoma); experiment: as above
Summary of the method: as §1

[8] = system: HCC1143 (Breast Carcinoma); experiment: as above
Summary of the method: as §1

[9] = system: HOP-92 (Non-Small Cell Lung Carcinoma); experiment: as above
Summary of the method: as §1

[10] = system: KG-1 (Acute Myeloid Leukemia); experiment: as above
Summary of the method: as §1

[11] = system: NCI-H1688 (Small Cell Lung Carcinoma); experiment: as above
Summary of the method: as §1

[12] = system: P31-FUJ (Acute Myeloid Leukemia); experiment: as above
Summary of the method: as §1

[13] = system: RCC10RGB (Kidney Carcinoma); experiment: as above
Summary of the method: as §1

[14] = system: SK-LMS-1 (Other Solid Carcinomas); experiment: as above
Summary of the method: as §1

[15] = system: TC-YIK (Other Solid Carcinomas); experiment: as above
Summary of the method: as §1

[16] = system: U-118-MG (Low Grade Glioma); experiment: as above
Summary of the method: as §1
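Throughout, for Bliss excess, mean over the matrix: after 72 h of two-drug dosing.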

Structure (SMILES) | Bliss excess [1] | Bliss excess [2] | combination Emax [3] | combination Emax [4] | combination Emax [5] | combination Emax [6] | combination Emax [7] | combination Emax [8] | combination Emax [9] | combination Emax [10] | combination Emax [11] | combination Emax [12] | combination Emax [13] | combination Emax [14] | combination Emax [15] | combination Emax [16]
NC1(C(=O)N[C@@H](CCO)c2ccc(Cl)cc2)CCN(c2ncnc3[nH]ccc23)CC1 [Capivasertib] + COc1nnc2ccc(N3CCC(c4ccc(OCCN5CCN(C)C(=O)[C@H]5C)cc4)CC3)nn12 [AZD5153] (first compound max 10 µM, 7x7, partner max 1 µM) | -0.0492 | -0.0723 | 0.771 | 0.504 | 0.575 | 0.79 | 0.481 | 0.325 | 0.405 | 0.852 | 0.406 | 1 | 0.518 | 0.609 | 0.962 | 0.658
NC1(C(=O)N[C@@H](CCO)c2ccc(Cl)cc2)CCN(c2ncnc3[nH]ccc23)CC1 [Capivasertib] + Cn1cnc2c(F)c(Nc3ccc(Br)cc3Cl)c(C(=O)NOCCO)cc21 [Selumetinib] (first compound max 10 µM, 7x7, partner max 10 µM) | -0.0316 | 0.0245 | 0.548 | 0.436 | 0.592 | 0.73 | 0.6 | 0.317 | 0.685 | 0.37 | 0.372 | 0.931 | 0.483 | 0.668 | 0.496 | 0.663
CS(=O)(=O)CCNCc1ccc(-c2ccc3ncnc(Nc4ccc(OCc5cccc(F)c5)c(Cl)c4)c3c2)o1 [Lapatinib] + C[C@@H](Oc1cc(-c2cnn(C3CCNCC3)c2)cnc1N)c1c(Cl)ccc(F)c1Cl [Crizotinib] (first compound max 10 µM, 7x7, partner max 10 µM) | -0.0304 | -0.0828 | 0.985 | 0.878 | 0.696 | 0.913 | 0.896 | 0.875 | 0.937 | 0.49 | 0.742 | 0.957 | 0.908 | 0.864 | 0.957 | 0.491
Cn1cnc2c(F)c(Nc3ccc(Br)cc3Cl)c(C(=O)NOCCO)cc21 [Selumetinib] + C[C@@H]1COCCN1C2=NC(=NC(=C2)C3(CC3)[S@](=N)(=O)C)C4=C5C=CNC5=NC=C4 [AZD6738] (first compound max 10 µM, 7x7, partner max 10 µM) | 0.0621 | -0.0582 | 0.988 | 0.135 | 0.487 | 0.755 | 0.413 | 0.766 | 0.398 | 0.787 | 0.165 | 0.948 | 0.513 | 0.496 | 0.865 | 0.479
COc1nnc2ccc(N3CCC(c4ccc(OCCN5CCN(C)C(=O)[C@H]5C)cc4)CC3)nn12 [AZD5153] + C=CCn1c(=O)c2cnc(Nc3ccc(N4CCN(C)CC4)cc3)nc2n1-c1cccc(C(C)(C)O)n1 [AZD1775] (first compound max 1 µM, partner max 1 µM) | 0.0138 | -0.0712 | 0.988 | 0.391 | 0.631 | 0.961 | 0.583 | 0.677 | 0.406 | 0.861 | 0.707 | 0.97 | 0.686 | 0.592 | 0.935 | 0.467
COc1nnc2ccc(N3CCC(c4ccc(OCCN5CCN(C)C(=O)[C@H]5C)cc4)CC3)nn12 [AZD5153] + CC1(C)CCC(CN2CCN(c3ccc(C(=O)NS(=O)(=O)c4ccc(NCC5CCOCC5)c([N+](=O)[O-])c4)c(Oc4cnc5[nH]ccc5c4)c3)CC2)=C(c2ccc(Cl)cc2)C1 [Venetoclax] (first compound max 1 µM, 7x7, partner max 1 µM) | -0.0369 | -0.0716 | 0.835 | 0.326 | 0.631 | 1 | 0.348 | 0.357 | 0.362 | 1 | 0.384 | 0.974 | 0.539 | 0.507 | 0.862 | 0.367
COc1nnc2ccc(N3CCC(c4ccc(OCCN5CCN(C)C(=O)[C@H]5C)cc4)CC3)nn12 [AZD5153] + Cn1cnc2c(F)c(Nc3ccc(Br)cc3Cl)c(C(=O)NOCCO)cc21 [Selumetinib] (first compound max 1 µM, 7x7, partner max 10 µM) | 0.0236 | 0.0028 | 0.849 | 0.304 | 0.735 | 0.823 | 0.375 | 0.513 | 0.556 | 0.817 | 0.384 | 0.985 | 0.574 | 0.666 | 0.93 | 0.362
COc1nnc2ccc(N3CCC(c4ccc(OCCN5CCN(C)C(=O)[C@H]5C)cc4)CC3)nn12 [AZD5153] + C[C@@H]1COCCN1C2=NC(=NC(=C2)C3(CC3)[S@](=N)(=O)C)C4=C5C=CNC5=NC=C4 [AZD6738] (first compound max 1 µM, 7x7, partner max 10 µM) | -0.0452 | -0.0626 | 0.995 | 0.524 | 0.744 | 0.943 | 0.578 | 0.824 | 0.374 | 0.905 | 0.633 | 0.987 | 0.572 | 0.61 | 0.965 | 0.611
